Measured values reported in BindingDB's records for doi:10.1016/j.ejmech.2021.113336 (Zhejiang University, 2021).

Assay: Inhibition of P-glycoprotein in human MCF7/ADR cells assessed as reversal fold by measuring reduction in doxorubicin IC50 at 5 uM incubated for 48 hrs by CCK-8 assay

| Compound | IC50 [µM] |
| --- | --- |
| COc1cc2c(cc1OC)CN(C(=O)c1ccc(-c3ccccc3OC)o1)CC2 | 13.5 |
| COc1ccc(-c2ccc(C(=O)N3CCc4cc(OC)c(OC)cc4C3)o2)cc1OC | 9.7 |
| COc1cc2c(cc1OC)CN(C(=O)c1ccc(-c3cc(OC)c(OC)c(OC)c3)o1)CC2 | 18.2 |
| COc1cc2c(cc1OC)CN(C(=O)c1ccc(-c3cccc(OC)c3OC)o1)CC2 | 15.1 |
| COc1ccc(-c2ccc(C(=O)N3CCc4cc(OC)c(OC)cc4C3)o2)c(OC)c1 | 18.3 |
| CCOc1ccc(-c2ccc(C(=O)N3CCc4cc(OC)c(OC)cc4C3)o2)cc1 | 15.4 |
| CCCOc1ccc(-c2ccc(C(=O)N3CCc4cc(OC)c(OC)cc4C3)o2)cc1 | 44.6 |
| COc1cc2c(cc1OC)CN(C(=O)c1ccc(-c3ccc(OC(C)C)cc3)o1)CC2 | 69.6 |
| CCCCOc1ccc(-c2ccc(C(=O)N3CCc4cc(OC)c(OC)cc4C3)o2)cc1 | 62.7 |
| COc1cc2c(cc1OC)CN(C(=O)c1ccc(-c3ccc(OC(C)(C)C)cc3)o1)CC2 | 62.7 |
| COc1cc2c(cc1OC)CN(C(=O)c1ccc(-c3ccc(OC(F)(F)F)cc3)o1)CC2 | 11.7 |
| COc1cc2c(cc1OC)CN(C(=O)c1ccc(-c3ccc(Oc4ccccc4)cc3)o1)CC2 | 42 |
| COc1cc2c(cc1OC)CN(C(=O)c1ccc(-c3ccc(SC(C)C)cc3)o1)CC2 | 64.4 |

Further compounds by falling IC50, results first:

| IC50 [µM] | Compound |
| --- | --- |
| 50.9 | COc1cc2c(cc1OC)CN(C(=O)c1ccc(-c3ccc(OCC(C)C)cc3)o1)CC2 |
| 19.8 | COc1cc(OC)cc(-c2ccc(C(=O)N3CCc4cc(OC)c(OC)cc4C3)o2)c1 |
| 18.8 | COc1ccc(OC)c(-c2ccc(C(=O)N3CCc4cc(OC)c(OC)cc4C3)o2)c1 |
| 9.1 | COc1ccc(-c2ccc(C(=O)N3CCc4cc(OC)c(OC)cc4C3)o2)cc1 |
| 8.4 | COc1cc2c(cc1OC)CN(C(=O)c1ccc(-c3ccc4c(c3)OCO4)o1)CC2 |
| 6.7 | COc1cccc(-c2ccc(C(=O)N3CCc4cc(OC)c(OC)cc4C3)o2)c1 |
